From patent US6399629B1, “Efflux pump inhibitors” (priority 1998, dated 2002)

Test system: Pseudomonas aeruginosa PAM1001
Assay: checkerboard assay (broth microdilution): levofloxacin MIC in presence of efflux pump inhibitor
Assay type: cell-based
Summary of the method: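 Checkerboard broth microdilution in Mueller Hinton Broth against P. aeruginosa PAM1001 (5×10^5 CFU/mL, early-log inoculum), levofloxacin and efflux pump inhibitor (up to 40 μg/mL) diluted along crossing axes. Plates incubated 20 h at 35° C; growth read at 650 nm and visually. Potentiation scored as reduced levofloxacin MIC.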

| SMILES | Levofloxacin MIC Against P. aerugiuosa PAM1001 in Presence of Efflux Pump Inhibitor (EPI), Minimum Inhibitory Concentration (EPI Conc. 0 μg/mL) [µg/mL] | Levofloxacin MIC Against P. aerugiuosa PAM1001 in Presence of Efflux Pump Inhibitor (EPI), Minimum Inhibitory Concentration (EPI Conc. 0.625 μg/mL) [µg/mL] | Levofloxacin MIC Against P. aerugiuosa PAM1001 in Presence of Efflux Pump Inhibitor (EPI), Minimum Inhibitory Concentration (EPI Conc. 1.25 μg/mL) [µg/mL] | Levofloxacin MIC Against P. aerugiuosa PAM1001 in Presence of Efflux Pump Inhibitor (EPI), Minimum Inhibitory Concentration (EPI Conc. 2.5 μg/mL) [µg/mL] | Levofloxacin MIC Against P. aerugiuosa PAM1001 in Presence of Efflux Pump Inhibitor (EPI), Minimum Inhibitory Concentration (EPI Conc. 5 μg/ mL) [µg/mL] | Levofloxacin MIC Against P. aerugiuosa PAM1001 in Presence of Efflux Pump Inhibitor (EPI), Minimum Inhibitory Concentration (EPI Conc. 10 μg/mL) [µg/mL] | Levofloxacin MIC Against P. aerugiuosa PAM1001 in Presence of Efflux Pump Inhibitor (EPI), Minimum Inhibitory Concentration (EPI Conc. 20 μg/mL) [µg/mL] | Levofloxacin MIC Against P. aerugiuosa PAM1001 in Presence of Efflux Pump Inhibitor (EPI), Minimum Inhibitory Concentration (EPI Conc. 40 μg/mL) [µg/mL] |
| --- | --- | --- | --- | --- | --- | --- | --- | --- |
| NCC(=O)N[C@H]1CN[C@H](C(=O)NCc2nc3ccccc3n2CCc2ccccc2)C1 [Compound M80, (2S,4R)-4-(2-Aminoacetamido)-N-[(1-(2-phenyl)ethyl-2-benzimidazoly)methyl]-2-pyrrolidinexarboxamide] | 4 | 4 | 4 | 4 | 2 | 0.25 | 0.06 | 0.06 |
| CC(C)(C)c1ccc2nc(CNC(=O)[C@@H]3C[C@@H](NC(=O)CN)CN3)[nH]c2c1 [Compound M81] | 4 | 4 | 4 | 4 | 2 | 1 | 0.25 | 0.03 |
| NCC(=O)N[C@H]1CN[C@H](C(=O)NCc2nc3cc(C(O)c4ccccc4)ccc3[nH]2)C1 (stereo partly drawn) [Compound M82, (2S,4R)-4-(2-Aminoacetamido)-N-[(5-(1-hydroxy-1-phenyl)methyl-2-benzimidazolyl)methyl]-2-pyrrolidinecarboxaniide] | 4 | 4 | 4 | 2 | 1 | 0.25 | 0.125 | 0.06 |
| NCC(=O)N[C@H]1CN[C@H](C(=O)N[C@@H](CCc2ccccc2)c2nc3ccccc3o2)C1 [Compound M85, (2S,4R)-4-(2-Aminoacetamido)-N-[(1S)-1-(2-benzoxazoiyl)-3-phenylpropyl]-2-pyrrolidinecarboxamide] | 4 | 4 | 4 | 4 | 4 | 2 | 0.50 | 0.03 |
| NC[C@H]1CN[C@@H](C(=O)NCc2nc3ccc(Cc4ccccc4)cc3[nH]2)C1 [Compound M87, (2R,4S)-4-(Aminomethyl)-N-[(5-benzyl-2-benzimidazoiyl)methyl]-2-pyrrolidinecarboxamide] | 4 | 4 | 4 | 1 | 0.125 | 0.06 | 0.03 | – |
| NC[C@@H]1CN[C@@H](C(=O)NCc2nc3ccc(-c4ccccc4)cc3[nH]2)C1 [Compound M89, (2R,4R)-4-(Aminomethyl)-N-[(5-phenyl-2-benzimidaxolyl)methyl]-2-pyrrolidinecarboxamide] | 4 | 4 | 4 | 4 | 2 | 2 | 0.03 | 0.03 |
| CC(C)(C)c1ccc2ncc(NC(=O)[C@@H]3C[C@@H](OCCN)CN3)cc2c1 [Compound M92, (2S,4R)-4-(2-Aminoethyloxy)-N-(6-(1,1-dimethyl)ethyl-3-quinolyl)-2-pyrrolidinecarboxamide] | 4 | 4 | 4 | 4 | 4 | 2 | 0.06 | 0.008 |
| N=C(N)N[C@H]1CN[C@H](C(=O)N[C@H](CCc2ccccc2)C(=O)Nc2cnc3ccccc3c2)C1 [Compound M95, (2S,4R)-4-(Guanadinyl)-N-[(1R)-3-phenyl-1-(3-quinolylcarbamoyl)propyl]-2-pyrrolidinecarboxamide] | 4 | 4 | 4 | 4 | 4 | 4 | 0.03 | 0.015 |
| CC(C)(C)c1ccc2ncc(NC(=O)[C@H]3C[C@H](CN)CN3)cc2c1 [Compound M97, (2R,4R)-4-(Aminomethyl)-N-[6-(1,1-dimethyl)ethyl-3-quiolyl]-2-pyrrolidinecarboxamide] | 4 | 4 | 4 | 2 | 0.5 | 0.125 | 0.015 | 0.008 |
| NC[C@@H]1CN[C@@H](C(=O)N[C@H](CCc2ccccc2)CNC(=O)c2cnc3ccccc3c2)C1 [Compound M103, (2R,4R)-4-(Aminomethyl)-N-[(1R)-3-phenyl-1-[(3-quinolylcarboxamido)methyl]propyl]-2-pyrrolidinecarboxamide] | 4 | 4 | 4 | 4 | 2 | 1 | 0.03 | 0.015 |
